Measurements taken from PubChem BioAssay (NCI).
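The concentration for 50% growth inhibition is given as GI50. TGI: total growth inhibition.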

Experiments:
Assay in all cases: NCI anticancer screen, dose series, 384-well format
SK-MEL-28 melanoma = system: SK-MEL-28 melanoma
MDA-MB-468 breast = system: MDA-MB-468 breast
SN12C renal = system: SN12C renal
NCI-H23 lung = system: NCI-H23 lung
UACC-62 melanoma = system: UACC-62 melanoma
MDA-MB-231 breast = system: MDA-MB-231 breast
NCI/ADR-RES ovarian = system: NCI/ADR-RES ovarian
SK-OV-3 ovarian = system: SK-OV-3 ovarian
SF-268 CNS = system: SF-268 CNS
RPMI-8226 leukemia = system: RPMI-8226 leukemia
U251 glioblastoma = system: U251 glioblastoma
A549 NSCLC = system: A549 NSCLC
HT29 colon = system: HT29 colon
MOLT-4 leukemia = system: MOLT-4 leukemia
NCI-H226 lung = system: NCI-H226 lung
LOX IMVI melanoma = system: LOX IMVI melanoma
786-0 renal = system: 786-0 renal
SW-620 colon = system: SW-620 colon
HCT-116 colon = system: HCT-116 colon
BT-549 breast = system: BT-549 breast
HCT-15 colon = system: HCT-15 colon
HOP-62 NSCLC = system: HOP-62 NSCLC
K-562 leukemia = system: K-562 leukemia
SNB-19 CNS = system: SNB-19 CNS
OVCAR-3 ovarian = system: OVCAR-3 ovarian
OVCAR-8 ovarian = system: OVCAR-8 ovarian
IGROV1 ovarian = system: IGROV1 ovarian
MALME-3M melanoma = system: MALME-3M melanoma
A498 renal = system: A498 renal
ACHN renal = system: ACHN renal
CCRF-CEM leukemia = system: CCRF-CEM leukemia
TK-10 renal = system: TK-10 renal
UO-31 renal = system: UO-31 renal
KM12 colon = system: KM12 colon
HOP-92 NSCLC = system: HOP-92 NSCLC
PC-3 prostate = system: PC-3 prostate
M14 melanoma = system: M14 melanoma
SNB-75 CNS = system: SNB-75 CNS
HL-60(TB) leukemia = system: HL-60(TB) leukemia
DU-145 prostate = system: DU-145 prostate
SF-295 CNS = system: SF-295 CNS
CAKI-1 renal = system: CAKI-1 renal
SK-MEL-2 melanoma = system: SK-MEL-2 melanoma
NCI-H522 lung = system: NCI-H522 lung
MCF7 breast = system: MCF7 breast
T-47D breast = system: T-47D breast
OVCAR-5 ovarian = system: OVCAR-5 ovarian
RXF 393 renal = system: RXF 393 renal
MDA-MB-435 melanoma = system: MDA-MB-435 melanoma
SF-539 CNS = system: SF-539 CNS
NCI-H322M lung = system: NCI-H322M lung
EKVX NSCLC = system: EKVX NSCLC
HCC-2998 colon = system: HCC-2998 colon
COLO 205 colon = system: COLO 205 colon
UACC-257 melanoma = system: UACC-257 melanoma
NCI-H460 NSCLC = system: NCI-H460 NSCLC
OVCAR-4 ovarian = system: OVCAR-4 ovarian
SK-MEL-5 melanoma = system: SK-MEL-5 melanoma
SR leukemia = system: SR leukemia

O=c1[nH]cc(N(CCCl)CCCl)c(=O)[nH]1
GI50 (SK-MEL-28 melanoma): 65.8 µM | GI50 (MDA-MB-468 breast): 2.73 µM | TGI (MDA-MB-468 breast): 14.2 µM | GI50 (SN12C renal): 4.66 µM | TGI (SN12C renal): 53.6 µM | GI50 (NCI-H23 lung): 12.3 µM | TGI (NCI-H23 lung): 57.9 µM | GI50 (UACC-62 melanoma): 6.43 µM | GI50 (MDA-MB-231 breast): 35.1 µM | GI50 (NCI/ADR-RES ovarian): 15.8 µM | GI50 (SK-OV-3 ovarian): 28.9 µM | GI50 (SF-268 CNS): 5.68 µM | TGI (SF-268 CNS): 41.1 µM | GI50 (RPMI-8226 leukemia): 6.85 µM | TGI (RPMI-8226 leukemia): 20.3 µM | GI50 (U251 glioblastoma): 10.2 µM | GI50 (A549 NSCLC): 26.8 µM | GI50 (HT29 colon): 24.5 µM | GI50 (MOLT-4 leukemia): 0.594 µM | TGI (MOLT-4 leukemia): 1.87 µM | GI50 (NCI-H226 lung): 51.4 µM | GI50 (LOX IMVI melanoma): 19.4 µM | GI50 ([…]-0 renal): 16.8 µM | GI50 (SW-620 colon): 8.78 µM | GI50 (HCT-116 colon): 7.54 µM | GI50 (BT-549 breast): 11.2 µM | TGI (BT-549 breast): 46.8 µM | GI50 (HCT-15 colon): 7.48 µM | GI50 (HOP-62 NSCLC): 7.79 µM | TGI (HOP-62 NSCLC): 31.3 µM | GI50 (K-562 leukemia): 17.4 µM | GI50 (SNB-19 CNS): 24.6 µM | GI50 (OVCAR-3 ovarian): 23.5 µM | GI50 (OVCAR-8 ovarian): 9.13 µM | GI50 (IGROV1 ovarian): 91.9 µM | GI50 (MALME-3M melanoma): 19.2 µM | GI50 (A498 renal): 68.9 µM | GI50 (ACHN renal): 2.88 µM | TGI (ACHN renal): 8.7 µM | GI50 (CCRF-CEM leukemia): 2.21 µM | TGI (CCRF-CEM leukemia): 4.17 µM | GI50 (TK-10 renal): 50 µM | GI50 (UO-31 renal): 20.3 µM | GI50 (KM12 colon): 98.9 µM | GI50 (HOP-92 NSCLC): 19.3 µM | GI50 (PC-3 prostate): 73.1 µM | GI50 (M14 melanoma): 9.7 µM | TGI (M14 melanoma): 61.6 µM | GI50 (SNB-75 CNS): 29.1 µM | GI50 (HL-60(TB) leukemia): 1.23 µM | TGI (HL-60(TB) leukemia): 2.57 µM | GI50 (DU-145 prostate): 14.1 µM | TGI (DU-145 prostate): 42.1 µM | GI50 (SF-295 CNS): 8.54 µM | TGI (SF-295 CNS): 26.4 µM | GI50 (CAKI-1 renal): 4.39 µM | TGI (CAKI-1 renal): 76.3 µM | GI50 (SK-MEL-2 melanoma): 68 µM | GI50 (NCI-H522 lung): 12.7 µM | TGI (NCI-H522 lung): 25.6 µM | GI50 (MCF7 breast): 18 µM | GI50 (T-47D breast): 30 µM | GI50 (OVCAR-5 ovarian): 20.1 µM | TGI (OVCAR-5 ovarian): 67.4 µM | GI50 (RXF 393 renal): 13.2 µM | TGI (RXF 393 renal): 27.4 µM | GI50 (MDA-MB-435 melanoma): 86.4 µM | GI50 (SF-539 CNS): 7.24 µM | TGI (SF-539 CNS): 29.8 µM

O=C(NCC(=O)N1CC[C@H](NC2CCC(O)(c3ccc(-c4ncccn4)cn3)CC2)C1)c1cccc(C(F)(F)F)c1 (some centres not stated)
GI50 (SK-MEL-28 melanoma): > 60 µM | TGI (SK-MEL-28 melanoma): > 100 µM | GI50 (MDA-MB-468 breast): 17.1 µM | TGI (MDA-MB-468 breast): 59.3 µM | GI50 (SN12C renal): > 100 µM | TGI (SN12C renal): > 100 µM | GI50 (NCI-H23 lung): 33.5 µM | TGI (NCI-H23 lung): > 88.2 µM | GI50 (UACC-62 melanoma): > 47.5 µM | TGI (UACC-62 melanoma): > 70.8 µM | GI50 (MDA-MB-231 breast): 77.6 µM | TGI (MDA-MB-231 breast): > 100 µM | GI50 (NCI/ADR-RES ovarian): > 100 µM | TGI (NCI/ADR-RES ovarian): > 100 µM | GI50 (SK-OV-3 ovarian): > 85.7 µM | TGI (SK-OV-3 ovarian): > 100 µM | GI50 (SF-268 CNS): > 81.4 µM | TGI (SF-268 CNS): > 100 µM | GI50 (RPMI-8226 leukemia): 20.8 µM | TGI (RPMI-8226 leukemia): 74.2 µM | GI50 (U251 glioblastoma): 52.5 µM | TGI (U251 glioblastoma): > 100 µM | GI50 (A549 NSCLC): > 100 µM | TGI (A549 NSCLC): > 100 µM | GI50 (HT29 colon): > 57.4 µM | TGI (HT29 colon): > 100 µM | GI50 (MOLT-4 leukemia): 20.9 µM | TGI (MOLT-4 leukemia): 63 µM | GI50 (NCI-H226 lung): > 58 µM | TGI (NCI-H226 lung): > 100 µM | GI50 (NCI-H322M lung): > 92.4 µM | TGI (NCI-H322M lung): > 100 µM | GI50 (LOX IMVI melanoma): 53.6 µM | TGI (LOX IMVI melanoma): > 100 µM | GI50 ([…]-0 renal): 69.3 µM | TGI (786-0 renal): > 100 µM | GI50 (SW-620 colon): > 100 µM | TGI (SW-620 colon): > 100 µM | GI50 (HCT-116 colon): 32.1 µM | TGI (HCT-116 colon): > 100 µM | GI50 (BT-549 breast): 30 µM | TGI (BT-549 breast): > 100 µM | GI50 (HCT-15 colon): > 66.7 µM | TGI (HCT-15 colon): > 100 µM | GI50 (HOP-62 NSCLC): > 64.7 µM | TGI (HOP-62 NSCLC): > 100 µM | GI50 (K-562 leukemia): 15.4 µM | TGI (K-562 leukemia): 31.5 µM | GI50 (SNB-19 CNS): 97.5 µM | TGI (SNB-19 CNS): > 100 µM | GI50 (OVCAR-3 ovarian): > 81.8 µM | TGI (OVCAR-3 ovarian): > 100 µM | GI50 (OVCAR-8 ovarian): 96.8 µM | TGI (OVCAR-8 ovarian): > 100 µM | GI50 (IGROV1 ovarian): > 96 µM | TGI (IGROV1 ovarian): > 100 µM | GI50 (EKVX NSCLC): 55.9 µM | TGI (EKVX NSCLC): > 100 µM | GI50 (MALME-3M melanoma): > 56.4 µM | TGI (MALME-3M melanoma): > 90.9 µM | GI50 (A498 renal): 55.1 µM | TGI (A498 renal): > 100 µM | GI50 (ACHN renal): > 100 µM | TGI (ACHN renal): > 100 µM | GI50 (CCRF-CEM leukemia): 29.6 µM | TGI (CCRF-CEM leukemia): > 100 µM | GI50 (TK-10 renal): > 90 µM | TGI (TK-10 renal): > 100 µM | GI50 (HCC-2998 colon): 35.7 µM | TGI (HCC-2998 colon): > 82.3 µM | GI50 (COLO 205 colon): > 87 µM | TGI (COLO 205 colon): > 100 µM | GI50 (UO-31 renal): 81.2 µM | TGI (UO-31 renal): > 100 µM | GI50 (KM12 colon): > 100 µM | TGI (KM12 colon): > 100 µM | GI50 (HOP-92 NSCLC): > 58.5 µM | TGI (HOP-92 NSCLC): > 100 µM | GI50 (UACC-257 melanoma): 19.2 µM | TGI (UACC-257 melanoma): 41.1 µM | GI50 (PC-3 prostate): 61.7 µM | TGI (PC-3 prostate): > 100 µM | GI50 (M14 melanoma): > 49.1 µM | TGI (M14 melanoma): > 73.5 µM | GI50 (SNB-75 CNS): > 100 µM | TGI (SNB-75 CNS): > 100 µM | GI50 (HL-60(TB) leukemia): 30.9 µM | TGI (HL-60(TB) leukemia): > 70.2 µM | GI50 (DU-145 prostate): > 100 µM | TGI (DU-145 prostate): > 100 µM | GI50 (NCI-H460 NSCLC): 38.4 µM | TGI (NCI-H460 NSCLC): > 100 µM | GI50 (OVCAR-4 ovarian): > 60.6 µM | TGI (OVCAR-4 ovarian): > 100 µM | GI50 (SF-295 CNS): > 96.1 µM | TGI (SF-295 CNS): > 100 µM | GI50 (CAKI-1 renal): 48.1 µM | TGI (CAKI-1 renal): > 100 µM | GI50 (SK-MEL-2 melanoma): > 64.4 µM | TGI (SK-MEL-2 melanoma): > 100 µM | GI50 (NCI-H522 lung): 65.6 µM | TGI (NCI-H522 lung): > 100 µM | GI50 (MCF7 breast): > 54.6 µM | TGI (MCF7 breast): > 100 µM | GI50 (SK-MEL-5 melanoma): 29.7 µM | TGI (SK-MEL-5 melanoma): > 52.1 µM | GI50 (T-47D breast): 12.1 µM | TGI (T-47D breast): > 69.4 µM | GI50 (OVCAR-5 ovarian): > 100 µM | TGI (OVCAR-5 ovarian): > 100 µM | GI50 (RXF 393 renal): 23.6 µM | TGI (RXF 393 renal): 63.3 µM | GI50 (SR leukemia): 17.4 µM | TGI (SR leukemia): 31.5 µM | GI50 (MDA-MB-435 melanoma): > 100 µM | TGI (MDA-MB-435 melanoma): > 100 µM | GI50 (SF-539 CNS): > 67.3 µM | TGI (SF-539 CNS): > 100 µM
